target: T1, GPR40 (Homo sapiens, UniProt O14842); assay: Agonist activity on CHO-K1/GPR40 cell (Fluo-4 calcium fluorescence); format: cell-based; conditions: CHO-K1 cell line expressing GPR40, calcium ion fluorescence
T1 construct: host or cells: CHO-K1 (Cell bank of the Chinese Academy of Sciences, GNHa 7), retrovirus infection
Description: Agonist activity of compounds of the present disclosure on CHO-K1/GPR40 cell.
The following method was used to determine the agonist activity of compounds of the present disclosure on GPR40. The experiment process is described as follows:
CHO-K1/GPR40 cell (CHO-K1 cell line expressing GPR40, which was constructed using retrovirus infection method, CHO-K1/GPR40 cell for short, wherein CHO-K1 cell was purchased from Cell bank of the Chinese Academy of Sciences, catalogue number GNHa 7; GPR40 cDNA was purchased from Guangzhou FulenGen Co., Ltd, catalogue number EX-UO270-MO2) was inoculated in a 96-well plate with an inoculation density of 25000 cells/well. The cell plate was incubated at 37° C. and 5% CO2 for 24 hours. The cell culture fluid was discarded during the experiment, the cells were washed with buffer solution (1×HBSS+20 mM HEPES pH 7.4) once, 100 μL of Fluo-4 calcium ion dye was quickly added into each well, incubated at 37° C. in the dark for 30 minutes, and then at room temperature for another 30 minutes. During the determination, the baseline value of each well was read at first, and then different concentrations of drug were added to the wells (50 μL/well), and the fluorescence values were then read. The fluorescence excitation wavelength was 494 nm and the emission wavelength was 516 nm. The increase of fluorescence intensity was proportional to calcium ion level in the cells. Cell response rate of each cell/(The maximum fluorescence value−The minimum fluorescence value)/The minimum fluorescence value. EC50 values of the compounds were calculated

T1 sequence (O14842 whole entry): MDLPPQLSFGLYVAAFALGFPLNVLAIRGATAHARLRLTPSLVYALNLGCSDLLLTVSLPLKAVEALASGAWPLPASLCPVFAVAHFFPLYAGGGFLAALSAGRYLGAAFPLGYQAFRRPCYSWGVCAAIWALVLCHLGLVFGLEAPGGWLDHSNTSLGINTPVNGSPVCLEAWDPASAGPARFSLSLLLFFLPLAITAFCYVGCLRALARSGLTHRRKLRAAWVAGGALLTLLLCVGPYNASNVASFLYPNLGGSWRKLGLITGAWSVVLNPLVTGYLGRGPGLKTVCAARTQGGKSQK

Compound | EC50
Cc1cc(O[C@@H]2CCC[C@H]2O)cc(C)c1-c1cccc(COc2ccc3c(c2)OC[C@H]3CC(=O)O)c1 (mixture of isomers) [Example 17, 2-((S)-6-((4′-(((1R,2R)/(1S,2S)-2-Hydroxycyclopentyl)oxy)-2′,6′-dimethylbiphenyl-3-yl)methoxy)-2,3-dihydrobenzofuran-3-yl)acetic acid] | 157 nM
Cc1cc(OC2CCN(S(C)(=O)=O)CC2)cc(C)c1-c1cccc(COc2ccc3c(c2)OC[C@H]3CC(=O)O)c1 [Example 5, (S)-2-(6-((2′,6′-Dimethyl-4′-((1-(methylsulfonyl)piperidin-4-yl)oxy)biphenyl-3-yl)methoxy)-2,3-dihydrobenzofuran-3-yl)acetic acid] | 107 nM
Cc1cc(OC2CCCC2)cc(C)c1-c1cccc(COc2ccc3c(c2)OC[C@H]3CC(=O)O)c1 [Example 10, (S)-2-(6-((4′-(Cyclopentyloxy)-2′,6′-dimethylbiphenyl-3-yl)methoxy)-2,3-dihydrobenzofuran-3-yl)acetic acid] | 134 nM
Cc1cc(O[C@H]2CCOC2)cc(C)c1-c1cccc(COc2ccc3c(c2)OC[C@H]3CC(=O)O)c1C [Example 12, 2-((S)-6-((2,2′,6′-Trimethyl-4′-(((S)-tetrahydrofuran-3-yl)oxy)biphenyl-3-yl)methoxy)-2,3-dihydrobenzofuran-3-yl)acetic acid] | 113 nM
Cc1cc(OC2CN(C(=O)[C@H](C)O)C2)cc(C)c1-c1cccc(COc2ccc3c(c2)OC[C@H]3CC(=O)O)c1 [Example 20, 2-((S)-6-((4′-((1-((S)-2-hydroxypropanoyl)azetidin-3-yl)oxy)-2′,6′-dimethylbiphenyl-3-yl)methoxy)-2,3-dihydrobenzofuran-3-yl)acetic acid] | 140 nM
Cc1cc(OC2CN(C(=O)CO)C2)cc(C)c1-c1cccc(COc2ccc3c(c2)OC[C@H]3CC(=O)O)c1 [Example 21, (S)-2-(6-((4′-((1-(2-hydroxyacetyl)azetidin-3-yl)oxy)-2′,6′-dimethylbiphenyl-3-yl)methoxy)-2,3-dihydrobenzofuran-3-yl)acetic acid] | 131 nM
COC(=O)N1CCC(Oc2cc(C)c(-c3cccc(COc4ccc5c(c4)OC[C@H]5CC(=O)O)c3)c(C)c2)CC1 [Example 23, (S)-2-(6-((4′-((1-(methoxycarbonyl)piperidin-4-yl)oxy)-2′,6′-dimethylbiphenyl-3-yl)methoxy)-2,3-dihydrobenzofuran-3-yl)acetic acid] | 141 nM

The next compounds have a lower EC50 than those just listed; values first:

EC50 | Compound
81 nM | Cc1cc(OC2CCNCC2)cc(C)c1-c1cccc(COc2ccc3c(c2)OC[C@H]3CC(=O)O)c1 [Example 4, (S)-2-(6-((2′,6′-Dimethyl-4′-(piperidin-4-yloxy)biphenyl-3-yl)methoxy)-2,3-dihydrobenzofuran-3-yl)acetic acid]
88 nM | Cc1cc(O[C@H]2CCN(S(C)(=O)=O)C2)cc(C)c1-c1cccc(COc2ccc3c(c2)OC[C@H]3CC(=O)O)c1 [Example 8, 2-((S)-6-((2′,6′-Dimethyl-4′-(((S)-1-(methylsulfonyl)pyrrolidin-3-yl)oxy)biphenyl-3-yl)methoxy)-2,3-dihydrobenzofuran-3-yl)acetic acid]
73 nM | Cc1cc(O[C@@H]2CCN(S(C)(=O)=O)C2)cc(C)c1-c1cccc(COc2ccc3c(c2)OC[C@H]3CC(=O)O)c1 [Example 11, 2-((S)-6-((2′,6′-Dimethyl-4′-(((R)-1-(methylsulfonyl)pyrrolidin-3-yl)oxy)biphenyl-3-yl)methoxy)-2,3-dihydrobenzofuran-3-yl)acetic acid]
77 nM | Cc1cc(OC2CCN(C(=O)[C@H](C)O)CC2)cc(C)c1-c1cccc(COc2ccc3c(c2)OC[C@H]3CC(=O)O)c1 [Example 22, 2-((S)-6-((4′-((1-((S)-2-hydroxypropanoyl)piperidin-4-yl)oxy)-2′,6′-dimethylbiphenyl-3-yl)methoxy)-2,3-dihydrobenzofuran-3-yl)acetic acid]

Reference: patent US9139548B2, “Polycyclic derivatives, preparation process and pharmaceutical use thereof” (Jiangsu Hengrui Medicine Co., Ltd., priority 2012, dated 2015)
